# Literature values as cited in patent publication US20150376703A1, “METHOD AND SYSTEM TO PREDICT RESPONSE TO PAIN TREATMENTS” (PATHWAY GENOMICS CORPORATION, priority 2013, published 2015).
# T1: 5-Lipoxygenase (ALOX5) (Homo sapiens, UniProt P09917)
# T1 construct: host or cells: patients (endogenous enzyme)
# T1 sequence (P09917 1-674): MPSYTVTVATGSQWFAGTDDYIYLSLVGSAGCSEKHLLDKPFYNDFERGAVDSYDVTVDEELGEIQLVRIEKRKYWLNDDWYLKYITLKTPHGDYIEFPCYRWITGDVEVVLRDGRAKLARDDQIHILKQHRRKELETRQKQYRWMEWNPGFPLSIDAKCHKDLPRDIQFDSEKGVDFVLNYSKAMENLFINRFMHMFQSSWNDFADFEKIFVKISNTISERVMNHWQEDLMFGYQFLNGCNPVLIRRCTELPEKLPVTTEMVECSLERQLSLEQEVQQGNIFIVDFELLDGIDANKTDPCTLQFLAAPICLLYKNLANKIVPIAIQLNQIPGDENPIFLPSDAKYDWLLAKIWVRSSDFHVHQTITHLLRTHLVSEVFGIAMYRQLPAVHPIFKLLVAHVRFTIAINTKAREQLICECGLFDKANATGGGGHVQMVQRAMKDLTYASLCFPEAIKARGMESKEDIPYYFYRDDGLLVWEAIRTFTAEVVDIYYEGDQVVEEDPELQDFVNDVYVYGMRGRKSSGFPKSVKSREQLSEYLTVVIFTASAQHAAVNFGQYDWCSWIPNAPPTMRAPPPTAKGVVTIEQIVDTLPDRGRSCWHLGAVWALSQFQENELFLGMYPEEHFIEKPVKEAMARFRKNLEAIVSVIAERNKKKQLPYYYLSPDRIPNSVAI
# Legend:
# [1] = molecular target: T2, KCNE2 (T8A in MiRP 1) (Homo sapiens, UniProt Q12809+Q9Y6J6, T8A)
# T2 construct: host or cells: patients (endogenous protein)
# [2] = molecular target: T3, ACE (I/D) (Homo sapiens, UniProt P12821); conditions: patients bearing the ACE-II-Allele
# T3 construct: host or cells: patients (endogenous enzyme)
# [3] = tested on: Glycoprotein IIIa (PLA1/A2) subunit of glycoprotein IIb/IIIa; conditions: patients carrying the PLA2 polymorphism
# [4] = molecular target: T1, 5-Lipoxygenase (ALOX5); conditions: patients who share a specific tandem repeat in the promoter
# [5] = tested on: Alpha-Adducin; conditions: patients who share the 460Gly/Trp polymorphism
# T3 sequence (P12821 30-1306): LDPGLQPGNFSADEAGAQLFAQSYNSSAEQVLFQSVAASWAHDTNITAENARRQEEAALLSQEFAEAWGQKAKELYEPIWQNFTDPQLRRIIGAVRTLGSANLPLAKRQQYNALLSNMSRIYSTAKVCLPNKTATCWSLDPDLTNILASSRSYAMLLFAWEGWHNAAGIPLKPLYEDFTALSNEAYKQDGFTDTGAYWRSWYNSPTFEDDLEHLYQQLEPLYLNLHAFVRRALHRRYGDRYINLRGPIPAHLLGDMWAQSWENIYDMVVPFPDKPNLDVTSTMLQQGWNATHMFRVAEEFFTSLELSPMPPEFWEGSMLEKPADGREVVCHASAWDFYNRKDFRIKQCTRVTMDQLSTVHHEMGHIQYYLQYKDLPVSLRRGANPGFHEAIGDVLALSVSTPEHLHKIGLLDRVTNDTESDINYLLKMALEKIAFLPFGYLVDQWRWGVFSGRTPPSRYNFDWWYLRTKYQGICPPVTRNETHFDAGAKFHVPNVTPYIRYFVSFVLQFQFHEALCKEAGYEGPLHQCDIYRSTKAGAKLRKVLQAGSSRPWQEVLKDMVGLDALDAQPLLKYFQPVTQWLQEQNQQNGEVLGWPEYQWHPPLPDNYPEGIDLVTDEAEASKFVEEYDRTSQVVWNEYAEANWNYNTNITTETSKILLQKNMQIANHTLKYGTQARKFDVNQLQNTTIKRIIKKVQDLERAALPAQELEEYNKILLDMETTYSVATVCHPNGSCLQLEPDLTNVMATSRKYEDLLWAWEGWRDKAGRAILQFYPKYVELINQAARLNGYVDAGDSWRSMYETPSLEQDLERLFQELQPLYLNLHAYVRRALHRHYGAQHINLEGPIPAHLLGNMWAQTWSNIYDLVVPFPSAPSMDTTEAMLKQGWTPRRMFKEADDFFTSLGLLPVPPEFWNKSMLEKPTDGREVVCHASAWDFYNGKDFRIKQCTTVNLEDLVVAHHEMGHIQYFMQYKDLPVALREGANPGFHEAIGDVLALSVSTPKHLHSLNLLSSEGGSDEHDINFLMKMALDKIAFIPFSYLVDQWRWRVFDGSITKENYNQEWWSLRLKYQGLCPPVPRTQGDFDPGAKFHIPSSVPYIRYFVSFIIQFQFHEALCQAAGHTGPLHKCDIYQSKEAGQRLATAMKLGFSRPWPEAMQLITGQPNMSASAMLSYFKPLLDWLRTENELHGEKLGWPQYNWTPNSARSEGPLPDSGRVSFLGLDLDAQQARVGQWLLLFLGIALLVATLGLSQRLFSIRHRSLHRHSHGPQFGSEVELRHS
# T2 sequence (Q9Y6J6 whole entry T8A): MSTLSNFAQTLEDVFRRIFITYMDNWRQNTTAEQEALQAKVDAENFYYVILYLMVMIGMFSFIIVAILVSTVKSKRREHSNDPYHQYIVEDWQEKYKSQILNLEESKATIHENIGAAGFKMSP
# T2 sequence (Q12809 whole entry): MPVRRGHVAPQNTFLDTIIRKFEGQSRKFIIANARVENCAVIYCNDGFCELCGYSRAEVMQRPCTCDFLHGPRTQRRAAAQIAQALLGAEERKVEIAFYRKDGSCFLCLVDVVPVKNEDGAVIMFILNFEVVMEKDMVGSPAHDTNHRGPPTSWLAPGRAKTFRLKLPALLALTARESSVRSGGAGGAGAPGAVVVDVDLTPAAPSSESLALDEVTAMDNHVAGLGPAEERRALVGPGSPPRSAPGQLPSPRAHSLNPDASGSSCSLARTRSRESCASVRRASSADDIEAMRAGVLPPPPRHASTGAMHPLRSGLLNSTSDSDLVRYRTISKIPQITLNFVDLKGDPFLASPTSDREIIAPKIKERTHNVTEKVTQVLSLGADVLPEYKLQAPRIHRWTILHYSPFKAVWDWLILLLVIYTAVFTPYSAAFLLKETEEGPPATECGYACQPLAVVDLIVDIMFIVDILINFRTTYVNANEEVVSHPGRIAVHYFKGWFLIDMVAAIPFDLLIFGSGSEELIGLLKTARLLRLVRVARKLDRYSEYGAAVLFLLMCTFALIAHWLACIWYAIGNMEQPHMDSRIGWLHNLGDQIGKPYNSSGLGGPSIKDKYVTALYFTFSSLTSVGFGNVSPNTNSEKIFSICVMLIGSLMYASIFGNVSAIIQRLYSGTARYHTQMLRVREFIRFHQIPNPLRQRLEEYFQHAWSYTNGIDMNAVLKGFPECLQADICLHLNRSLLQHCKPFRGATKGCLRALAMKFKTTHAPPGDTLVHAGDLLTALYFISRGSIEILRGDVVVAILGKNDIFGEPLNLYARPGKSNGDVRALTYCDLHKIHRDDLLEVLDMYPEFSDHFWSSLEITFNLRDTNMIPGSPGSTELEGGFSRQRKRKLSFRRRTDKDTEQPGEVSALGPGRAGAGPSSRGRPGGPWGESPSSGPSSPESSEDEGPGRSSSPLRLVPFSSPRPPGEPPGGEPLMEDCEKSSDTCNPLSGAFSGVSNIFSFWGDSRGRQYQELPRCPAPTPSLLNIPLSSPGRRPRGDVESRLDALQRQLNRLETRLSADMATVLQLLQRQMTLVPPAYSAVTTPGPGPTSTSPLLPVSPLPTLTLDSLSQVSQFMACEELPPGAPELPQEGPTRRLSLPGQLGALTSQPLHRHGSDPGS
molecule,measurement,setting,value
Cc1cc(NS(=O)(=O)c2ccc(N)cc2)no1 [Sulfamethoxazol],Clinical Result: adverse effect,[1],Drug induced Long-QT-
C[C@H](N[C@@H](CCc1ccccc1)C(=O)O)C(=O)N1CCC[C@H]1C(=O)O [Enalaprilat],Clinical Result: response,[2],Better response of patients
CC(=O)Oc1ccccc1C(=O)O [Aspirin],Clinical Result: antiplatelet effect,[3],Reduced response in patients
O=c1[nH]c2ccccc2n1CCCN1CCN(C(c2ccccc2)c2ccccc2)CC1 [Oxatomid],Clinical Result: adverse effect,[1],Drug induced Long-QT-
CC(c1cc2ccccc2s1)N(O)C(N)=O (centres unmarked) [Zileuton],Clinical Result,[4],No effect in patients who
CCOC(=O)[C@H](CCc1ccccc1)N[C@@H](C)C(=O)N1CCC[C@H]1C(=O)O [enalapril],Clinical Result: response,[2],Better response of patients
NS(=O)(=O)c1cc2c(cc1Cl)NCNS2(=O)=O [Hydrochlorothiazide],Clinical Result: sensitivity,[5],hypertension). Higher
"Abciximab (antibody, chains of the INN, looked up, V domains shown) VH: EVQLQQSGTVLARPGASVKMSCEASGYTFTNYWMHWVKQRPGQGLEWIGAIYPGNSDTSYIQKFKGKAKLTAVTSTTSVYMELSSLTNEDSAVYYCTLYDGYYVFAYWGQGTLVTVSA VL: EIVLTQSPVTLSVTPGDSVSLSCRASRDISNNLHWFQQTSHESPRLLIKYASQSMSGIPSRFSGSGSGTDFTLSINSVETEDFGMYFCQQTNSWPYTFGGGTKLEIK",Clinical Result: antiplatelet effect,[3],Reduced response in patients
